Test results reported in PMC11943355, “Identification of a Novel Antagonist of BRS-3 from Natural Products and Its Protective Effects Against H2O2-Induced Cardiomyocyte Injury” (International Journal of Molecular Sciences, 2025).

How the values were obtained:
Format in all cases: cell-based
[1] = target: T1, BRS-3 (bombesin receptor subtype-3, BB3), human (Homo sapiens, UniProt P32247); assay: inhibition of […] MK-5046-induced IP1 accumulation (HTRF) in H1299-hBRS-3 stable cells
T1 construct: gene BRS3
T1 sequence (P32247 1-399): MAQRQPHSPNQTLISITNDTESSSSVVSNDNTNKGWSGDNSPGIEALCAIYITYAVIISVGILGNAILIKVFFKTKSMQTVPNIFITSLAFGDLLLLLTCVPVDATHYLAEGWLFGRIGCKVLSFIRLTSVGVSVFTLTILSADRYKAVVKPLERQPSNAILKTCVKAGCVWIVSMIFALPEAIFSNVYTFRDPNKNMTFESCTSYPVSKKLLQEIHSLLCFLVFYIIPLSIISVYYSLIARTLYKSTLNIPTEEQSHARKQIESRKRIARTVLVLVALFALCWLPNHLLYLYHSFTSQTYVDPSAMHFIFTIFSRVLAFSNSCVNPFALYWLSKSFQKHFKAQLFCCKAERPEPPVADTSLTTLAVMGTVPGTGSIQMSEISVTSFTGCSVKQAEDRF

[2] = target: T2, BRS-3 (bombesin receptor subtype-3, BB3), murine (Mus musculus, UniProt O54798); assay: inhibition of […] MK-5046-induced Ca2+ mobilization (FLIPR) in HEK293-mBRS-3 stable cells; also DMR (IC50 […])
T2 construct: gene Brs3
T2 sequence (O54798 1-399): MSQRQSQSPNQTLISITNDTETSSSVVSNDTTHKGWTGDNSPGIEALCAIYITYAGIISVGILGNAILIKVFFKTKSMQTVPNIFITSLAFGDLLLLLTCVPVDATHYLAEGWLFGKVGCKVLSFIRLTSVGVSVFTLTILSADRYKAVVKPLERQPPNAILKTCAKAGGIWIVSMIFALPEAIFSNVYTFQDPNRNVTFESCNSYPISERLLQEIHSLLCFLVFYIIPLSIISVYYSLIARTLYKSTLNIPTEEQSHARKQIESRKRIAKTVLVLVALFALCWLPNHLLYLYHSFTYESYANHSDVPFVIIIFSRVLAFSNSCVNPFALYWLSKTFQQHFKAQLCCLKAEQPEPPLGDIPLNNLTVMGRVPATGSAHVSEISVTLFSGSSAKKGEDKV

[3] = target: T2, BRS-3 (bombesin receptor subtype-3, BB3), murine; assay: reference peptide antagonist; inhibition of […] MK-5046-induced Ca2+ mobilization (FLIPR) in HEK293-mBRS-3 stable cells

CC(C)=CCc1c(O)ccc(-c2coc3cc(O)cc(O)c3c2=O)c1O [LIA, licoisoflavone A]
IC50 [1]: 841 nM
IC50 [2]: 706 nM

Bantag-1
IC50 [3]: 2.32 nM
